Test results: patent US20240398737A1, “FUNCTIONALIZED LONG-CHAIN HYDROCARBON MONO- AND DI-CARBOXYLIC ACIDS AND DERIVATIVES THEREOF, AND THEIR USE FOR THE PREVENTION OR TREATMENT OF DISEASE” (Espervita Therapeutics, Inc., priority 2021, published 2024)
Values joined by “and” are separate entries in the source; they are usually repeats but may differ in a detail not shown here. Equal entries are not always repeated. “Also recorded” adds a separate entry of the source.

What was measured:
[1] = tested on: hepatic de novo lipogenesis; assay: Hepatic de novo lipogenesis (14C-glucose) in a murine model of NASH; assay type: in vivo, mouse; details: for Hepatic de novo lipogenesis, Mean (DPM/gram liver tissue/hour): high fat/high fructose fed mice
Method: Experimental Protocol. FIG. 22 summarizes the study protocol. Mice were dosed daily for 7 days with a single dose of either Compound I-32 or Compound I-1 at a dose of 10 mg/kg, 30 mg/kg or 60 mg/kg. On the 8th day of the experiment mice receive final dose of Compound I-32 or Compound I-1, followed one hour later by an I.P. bolus of 14—C Glucose.
C57BL6J (8 weeks of age) were obtained for the Jackson Laboratory and fed a normal chow diet upon arrival. At ˜10 weeks of age, mice were given a diet containing high fat and high fructose (Rodent Diet with 40 kcal % Fat (Mostly Palm Oil), 20 kcal % fructose, and 0.02% cholesterol, obtained from Research Diets, Product Code: D19101102) and housed at thermoneutral conditions (26-29° C.). After 7-8 months the mice were divided into 7 groups and received a single daily dose via gavage of either vehicle (1.5% CMC and 0.2% Tween-20) or vehicle containing Compound I-32 or Compound I-1 at a concentration of 10 mg/kg, 30 mg/kg, or 60 mg/kg for 7 days. On the morning of day 8, animals received a final dose and after 1 hour ^14C-glucose (PerkinElmer) was administered at a concentration of 12 μCi per mouse in a volume of 0.1 ml in 0.9% saline I.P. One hour after ^14C-glucose was given, animals were anesthetized by I.P. injection of Ketamine/Xylazine (150 mg/12.4 mg/kg, respectively). Blood was drawn through cardiac puncture; the liver was removed, and a sample was from the left lobe and frozen in liquid nitrogen. Liver tissue was chipped on dry-ice and the weight of the chip weight recorded (30-50 mg of tissue). Liver tissue was homogenized in 1 ml of 2:1 chloroform: methanol using a bead homogenizer at 5000 rpm for 2×12 seconds. Samples were incubated with gentle shaking at 4° C. for 2 hours, vortexed for 2×12 seconds, and then centrifuge at 7000 rpm for 10 minutes at 4° C. The supernatant was transferred to a 1.5 ml Eppendorf and 200 μl of 0.9% saline was added. Samples were vortexed for 2×12 seconds and centrifuged at 3000 rpm for 10 minutes at 4° C. 200 μl of the lower organic phase was removed and added to 5 ml of scintillation fluid. The amount radioactivity in the sample was measured by scintillation counting. The number of disintegrations per minute (DPM) were determined over a 5-minute period and normalized to the amount of liver tissue. 5-10 μl of plasma obtained at termination was also counted and lipid/gram tissue counts were normalized to plasma counts. Statistical comparisons were carried out using a one-way ANOVA followed by Dunnett's post hoc test using GraphPad Prism 8 software. A p-value of less than or equal to 0.05 was used as the criterion of significance.

FLT1/VEGFR1 = FLT1/VEGFR1 (Homo sapiens (Human), UniProt P17948); assay: Wild type kinase screen: FLT1/VEGFR1; assay type: biochemical; details: compound at 10 μM, 10 μM ATP, Data 1 and Data 2 duplicates
Sequence of FLT1/VEGFR1 (P17948 27-1338): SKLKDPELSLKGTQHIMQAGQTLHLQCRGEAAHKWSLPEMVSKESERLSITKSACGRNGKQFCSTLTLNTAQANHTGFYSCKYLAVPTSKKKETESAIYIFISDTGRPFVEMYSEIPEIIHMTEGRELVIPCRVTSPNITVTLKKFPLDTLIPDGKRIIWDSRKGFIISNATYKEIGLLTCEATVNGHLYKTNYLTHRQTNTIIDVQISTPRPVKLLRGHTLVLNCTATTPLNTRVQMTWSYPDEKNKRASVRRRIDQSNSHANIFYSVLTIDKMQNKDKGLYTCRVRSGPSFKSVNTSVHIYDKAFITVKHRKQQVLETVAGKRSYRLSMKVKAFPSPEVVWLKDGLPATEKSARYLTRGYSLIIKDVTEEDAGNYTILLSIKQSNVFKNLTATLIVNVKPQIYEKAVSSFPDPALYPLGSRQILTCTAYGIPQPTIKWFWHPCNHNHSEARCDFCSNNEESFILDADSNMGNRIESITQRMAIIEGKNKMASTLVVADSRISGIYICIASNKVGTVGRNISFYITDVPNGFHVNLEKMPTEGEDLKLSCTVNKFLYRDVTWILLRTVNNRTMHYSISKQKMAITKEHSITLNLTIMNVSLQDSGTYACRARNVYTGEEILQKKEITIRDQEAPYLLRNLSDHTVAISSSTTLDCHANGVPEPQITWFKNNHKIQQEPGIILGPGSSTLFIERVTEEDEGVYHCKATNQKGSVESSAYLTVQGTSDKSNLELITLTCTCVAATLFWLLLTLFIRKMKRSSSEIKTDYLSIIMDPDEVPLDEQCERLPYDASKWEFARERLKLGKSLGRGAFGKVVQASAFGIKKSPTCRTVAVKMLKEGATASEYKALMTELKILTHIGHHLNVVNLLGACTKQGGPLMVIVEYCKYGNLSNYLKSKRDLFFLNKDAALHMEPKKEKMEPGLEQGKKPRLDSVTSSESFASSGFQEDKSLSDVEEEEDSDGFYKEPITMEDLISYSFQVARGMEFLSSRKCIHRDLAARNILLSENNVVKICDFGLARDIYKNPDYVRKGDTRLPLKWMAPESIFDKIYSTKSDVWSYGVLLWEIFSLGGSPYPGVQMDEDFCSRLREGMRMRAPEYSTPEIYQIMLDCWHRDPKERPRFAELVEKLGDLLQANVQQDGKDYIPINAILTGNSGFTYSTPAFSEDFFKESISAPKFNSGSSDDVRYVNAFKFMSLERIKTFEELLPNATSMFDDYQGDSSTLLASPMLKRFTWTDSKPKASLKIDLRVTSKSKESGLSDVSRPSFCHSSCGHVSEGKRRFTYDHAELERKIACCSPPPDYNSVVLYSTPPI

C57BL6/J mice = assay: Indirect calorimetry (CLAMS) in fructose-fed C57BL6/J mice; assay type: in vivo, mouse; details: 100 mg/kg oral gavage
Method: Materials and Methods. All experiments were carried out using the methods approved by the Animal Research Ethics Board at McMaster University, Canada (Steinberg Laboratory Animal Utilization Protocol #16-12-42). 8-Week-old male C57BL6/J mice were ordered from Jackson Laboratory, Bar Harbor, Maine and housed at the McMaster University Central Animal Facility. Animals were housed in the ventilated cages racks system and provided with ad libitum access to normal chow diet (Teklad 8640 22/5 rodent diet, procured from Envigo, Mississauga ON) and water supplemented with fructose (30% weight/volume, made fresh weekly) for at least 2-weeks before testing commenced. A 12-hour light/dark cycle and a temperature of 23±2° C. were maintained throughout the animal housing. Data were analyzed using one-way analyses of variance followed by a Tukey's multiple comparisons post hoc test where appropriate. All statistical analysis was carried out using GraphPad Prism 8 software. A p-value of less than or equal 0.05 was considered significant.
Experimental and Results. Respiratory Exchange Ratio (RER) and related metabolic parameters were measured using the Comprehensive Lab Animal Monitoring System (CLAMS, Columbus Instruments, Columbus, Ohio). Animals were placed in CLAMS and allowed ad libitum access to normal chow diet and water supplemented with fructose (30% weight/volume) for at least 24 hours before the experiment began. At 5:30 p.m. chow diet was removed and water containing 30% fructose was replaced with normal tap water. Animals were fasted overnight until food and 30% fructose water were made accessible the next day at 7:30 a.m. (14 hours total). Animals were allowed to feed ad libitum for ˜2 hours. RER was monitored and those animals with RER values >1 were administered either vehicle (1.5% Carboxymethyl cellulose and 0.2% Tween 20) alone or vehicle containing Compound I-1 or Compound I-32 at a dose of 100 mg/kg via oral gavage. Animals remained in the metabolic cages and RER, activity level, locomotor activity, and food intake were monitored for 24 hours. Metabolic parameters were calculated using Oxymax software included with Comprehensive Lab Animal Monitoring System (CLAMS). RER was calculated as the […] given by the following equation: […]
Locomotor activity was calculated as the total number of beam breaks in each cage over a 24-hour period. The heat (calorific value, CV) was calculated by the following equation: […]

female Wistar Han rats = assay: 4-day oral gavage toxicity study in female rats; details: 4 days; for Compound-related effects in hematology or coagulation test results / Compound-related mortality, clinical observations, body weight effects, or changes in food consumption: 100 or 300 mg/kg/day oral gavage once daily; for Compound-related macroscopic observations: 100 or 300 mg/kg/day
MAPKAPK2 = MAPKAPK2 (Homo sapiens (Human), UniProt P49137); assay: Wild type kinase screen: MAPKAPK2; assay type: biochemical; details: compound at 10 μM, 10 μM ATP, Data 1 and Data 2 duplicates
Sequence of MAPKAPK2 (P49137 whole entry, species assumed): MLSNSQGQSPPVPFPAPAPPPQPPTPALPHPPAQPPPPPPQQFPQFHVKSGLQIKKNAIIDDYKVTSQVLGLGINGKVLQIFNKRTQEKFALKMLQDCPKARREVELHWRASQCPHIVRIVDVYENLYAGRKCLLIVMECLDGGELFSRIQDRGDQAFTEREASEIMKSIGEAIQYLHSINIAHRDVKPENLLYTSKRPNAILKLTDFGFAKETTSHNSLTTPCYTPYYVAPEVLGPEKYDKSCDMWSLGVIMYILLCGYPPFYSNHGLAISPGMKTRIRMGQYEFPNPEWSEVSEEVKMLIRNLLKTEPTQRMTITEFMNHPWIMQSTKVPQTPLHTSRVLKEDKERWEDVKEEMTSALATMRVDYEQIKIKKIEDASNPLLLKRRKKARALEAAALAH

PIM3 = PIM3 (Homo sapiens (Human), UniProt Q86V86); assay: Wild type kinase screen: PIM3; assay type: biochemical; details: compound at 10 μM, 10 μM ATP, Data 1 and Data 2 duplicates
TNIK = TNIK (Homo sapiens (Human), UniProt Q9UKE5); assay: Wild type kinase screen: TNIK; assay type: biochemical; details: compound at 10 μM, 10 μM ATP, Data 1 and Data 2 duplicates
Sequence of TNIK (Q9UKE5 whole entry, species assumed): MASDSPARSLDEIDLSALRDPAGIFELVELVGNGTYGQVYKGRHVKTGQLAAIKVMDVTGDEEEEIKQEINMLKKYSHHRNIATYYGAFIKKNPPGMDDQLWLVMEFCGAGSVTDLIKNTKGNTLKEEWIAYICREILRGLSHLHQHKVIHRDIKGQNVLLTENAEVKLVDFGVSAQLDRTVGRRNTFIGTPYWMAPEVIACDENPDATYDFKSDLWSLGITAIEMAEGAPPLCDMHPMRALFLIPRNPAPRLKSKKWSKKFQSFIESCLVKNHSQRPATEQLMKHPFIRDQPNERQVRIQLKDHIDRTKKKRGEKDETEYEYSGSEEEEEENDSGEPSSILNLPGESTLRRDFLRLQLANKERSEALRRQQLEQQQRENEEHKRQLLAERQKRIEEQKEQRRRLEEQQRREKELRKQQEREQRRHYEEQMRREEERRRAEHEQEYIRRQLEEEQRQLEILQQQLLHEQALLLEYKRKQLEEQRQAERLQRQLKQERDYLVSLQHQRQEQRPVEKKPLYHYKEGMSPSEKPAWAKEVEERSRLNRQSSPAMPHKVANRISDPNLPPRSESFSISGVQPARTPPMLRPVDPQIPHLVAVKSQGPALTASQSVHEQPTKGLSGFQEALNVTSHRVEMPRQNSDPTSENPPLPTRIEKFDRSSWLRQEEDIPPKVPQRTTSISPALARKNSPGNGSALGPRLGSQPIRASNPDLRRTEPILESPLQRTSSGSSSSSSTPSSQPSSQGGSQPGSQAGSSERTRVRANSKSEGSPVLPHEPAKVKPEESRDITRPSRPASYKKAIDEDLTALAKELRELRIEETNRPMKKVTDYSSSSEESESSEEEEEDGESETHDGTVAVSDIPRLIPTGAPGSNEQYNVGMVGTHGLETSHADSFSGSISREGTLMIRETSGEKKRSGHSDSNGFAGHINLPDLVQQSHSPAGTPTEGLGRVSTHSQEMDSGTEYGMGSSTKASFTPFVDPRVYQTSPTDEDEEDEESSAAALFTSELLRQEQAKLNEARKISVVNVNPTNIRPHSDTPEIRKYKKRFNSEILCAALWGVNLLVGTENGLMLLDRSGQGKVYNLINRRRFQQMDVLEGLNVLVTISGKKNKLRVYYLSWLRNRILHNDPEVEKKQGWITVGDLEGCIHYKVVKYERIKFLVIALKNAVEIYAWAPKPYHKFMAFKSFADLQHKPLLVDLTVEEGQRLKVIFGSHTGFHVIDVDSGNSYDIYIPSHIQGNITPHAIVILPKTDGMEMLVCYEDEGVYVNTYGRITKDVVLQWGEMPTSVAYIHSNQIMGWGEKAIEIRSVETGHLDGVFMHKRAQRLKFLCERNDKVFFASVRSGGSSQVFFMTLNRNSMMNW

AURORA C = AURORA C (Homo sapiens (Human), UniProt Q9UQB9); assay: Wild type kinase screen: AURORA C; assay type: biochemical; details: compound at 10 μM, 10 μM ATP, Data 1 and Data 2 duplicates
Sequence of AURORA C (Q9UQB9 whole entry): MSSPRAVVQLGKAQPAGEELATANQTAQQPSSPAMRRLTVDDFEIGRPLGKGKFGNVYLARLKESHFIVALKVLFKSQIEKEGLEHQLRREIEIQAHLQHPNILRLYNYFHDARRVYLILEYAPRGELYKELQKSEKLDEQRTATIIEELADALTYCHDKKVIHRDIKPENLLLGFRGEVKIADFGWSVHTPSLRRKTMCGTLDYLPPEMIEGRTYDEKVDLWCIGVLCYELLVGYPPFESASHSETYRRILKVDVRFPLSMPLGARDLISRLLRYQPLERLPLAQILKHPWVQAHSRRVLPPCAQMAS

NEK2 = NEK2 (Homo sapiens (Human), UniProt P51955); assay: Wild type kinase screen: NEK2; assay type: biochemical; details: compound at 10 μM, 10 μM ATP, Data 1 and Data 2 duplicates
Sequence of NEK2 (P51955 whole entry, species assumed): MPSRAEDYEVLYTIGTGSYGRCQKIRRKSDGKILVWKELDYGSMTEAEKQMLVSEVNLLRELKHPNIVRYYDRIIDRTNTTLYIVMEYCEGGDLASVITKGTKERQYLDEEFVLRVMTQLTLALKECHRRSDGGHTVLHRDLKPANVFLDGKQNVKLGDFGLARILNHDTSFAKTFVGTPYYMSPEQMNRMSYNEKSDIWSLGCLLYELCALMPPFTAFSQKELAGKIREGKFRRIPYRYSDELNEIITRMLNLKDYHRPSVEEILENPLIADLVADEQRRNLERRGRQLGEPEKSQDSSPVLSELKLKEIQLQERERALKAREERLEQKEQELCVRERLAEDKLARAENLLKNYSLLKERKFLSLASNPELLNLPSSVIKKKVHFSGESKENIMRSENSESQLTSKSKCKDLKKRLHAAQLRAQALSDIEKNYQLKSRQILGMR

CAMK2g = CAMK2g (Homo sapiens (Human), UniProt Q13555); assay: Wild type kinase screen: CAMK2g; assay type: biochemical; details: compound at 10 μM, 10 μM ATP, Data 1 and Data 2 duplicates
[2] = 10 mg/kg daily oral gavage for 7 days
[3] = 30 mg/kg daily oral gavage for 7 days
[4] = 60 mg/kg daily oral gavage for 7 days

SMILES | Hepatic de novo lipogenesis, Mean (DPM/gram liver tissue/hour) [1, 2] | Hepatic de novo lipogenesis, % change from vehicle control (inhibition) [1, 3] | Hepatic de novo lipogenesis, Mean (DPM/gram liver tissue/hour) [1, 3] | Hepatic de novo lipogenesis, % change from vehicle control (inhibition) [1, 4] | Hepatic de novo lipogenesis, Mean (DPM/gram liver tissue/hour) [1, 4] | % Enzyme Activity (relative to DMSO controls) (FLT1/VEGFR1) [%] | Duration of the RER reduction (C57BL6/J mice) [h] | Respiratory exchange ratio (RER) compared to vehicle treated group (C57BL6/J mice) | Time to detection of the RER reduction after treatment (C57BL6/J mice) [h] | Adversity of the effects at this dose (female Wistar Han rats; 300 mg/kg/day) | Albumin:globulin ratio (clinical chemistry) (female Wistar Han rats; 300 mg/kg/day) | Globulin concentration (clinical chemistry) (female Wistar Han rats; 300 mg/kg/day) | Compound-related effects in hematology or coagulation test results (female Wistar Han rats) | Compound-related mortality, clinical observations, body weight effects, or changes in food consumption (female Wistar Han rats) | Compound-related macroscopic observations (female Wistar Han rats) | % Enzyme Activity (relative to DMSO controls) (MAPKAPK2) [%] | % Enzyme Activity (relative to DMSO controls) (PIM3) [%] | % Enzyme Activity (relative to DMSO controls) (TNIK) [%] | % Enzyme Activity (relative to DMSO controls) (AURORA C) [%] | % Enzyme Activity (relative to DMSO controls) (NEK2) [%] | other results
CC(C)(CCCCc1ccc(CCCCC(C)(C)C(=O)O)cc1)C(=O)O [Compound I-1, 6-[4-(5-carboxy-5-methylhexyl)-phenyl]-2,2-dimethylhexanoic acid] | 81.25 DPM/gram liver tissue/hour | 56% and 55.65% | 43.83 DPM/gram liver tissue/hour | 69% and 68.96% | 30.68 DPM/gram liver tissue/hour | 87.88 | 6 | significant reduction | ≤ 1 | adverse | minimally higher | minimally lower | No | No | No | 92.75 | 83 | 101.58 | 93.1 | 85.17 | Adversity of the effects at this dose (female Wistar Han rats; 100 mg/kg/day): nonadverse; Albumin:globulin ratio (clinical chemistry) (female Wistar Han rats; 100 mg/kg/day): minimally higher; Globulin concentration (clinical chemistry) (female Wistar Han rats; 100 mg/kg/day): minimally lower; Kidney microscopic findings (female Wistar Han rats; 300 mg/kg/day): tubular degeneration/necrosis, tubular regeneration, and increased mitoses; Liver microscopic findings (female Wistar Han rats; >100 mg/kg/day (so in the source)): increase in mitoses in hepatocytes; % Enzyme Activity (relative to DMSO controls) (CAMK2g): 57.02%
CC(C)(CCCCc1cccc(CCCCC(C)(C)C(=O)O)c1)C(=O)O [Compound I-32, 6-[3-(5-carboxy-5-methylhexyl)-phenyl]-2,2-dimethylhexanoic acid] | 50.61 DPM/gram liver tissue/hour | 37.42% | 61.85 DPM/gram liver tissue/hour | 53% and 52.90% | 46.55 DPM/gram liver tissue/hour | 91.15 | 6 | significant reduction | ≤ 1 | nonadverse | minimally higher | minimally lower | No | No | No | 90.61 | 86.73 | 99.68 | 97.44 | 87.7 | Hepatic de novo lipogenesis, % change from vehicle control (inhibition) [1, 2]: 48.79%; Liver microscopic findings (female Wistar Han rats; 300 mg/kg/day): increase in mitoses in hepatocytes; also recorded: periportal hepatocyte vacuolation; Serum urea nitrogen concentration (female Wistar Han rats; 300 mg/kg/day, considered potentially compound-related): Minimally lower; % Enzyme Activity (relative to DMSO controls) (CAMK2g): 66.13%
